{"source": "paper PMC6877352", "about": "“Modifying the Siderophore Triacetylfusarinine C for Molecular Imaging of Fungal Infection” (Molecular imaging and biology, 2019)", "key": {"[1]": {"system": "A. fumigatus wildtype (ATCC46645)", "assay": "In vitro uptake assay in A. fumigatus", "format": "cell-based, Aspergillus fumigatus", "details": "iron-starvation condition, 45 min, normalized to [^68Ga]TAFC uptake from the same experiment, n = 3", "method": "For in vitro uptake studies, A. fumigatus wildtype (ATCC46645) was used. Fungal strain was cultured at 37 °C in Aspergillus minimal medium (AMM) containing 1 % (m/v) glucose as carbon source, 20 mM glutamine as nitrogen source, salts, and trace elements. Iron-sufficient media were prepared by adding FeSO4 to a final concentration of 30 μM. For iron-deficient conditions, supplementation of iron was omitted. Iron starvation was verified by the detection of extracellular siderophore production which is suppressed by iron supplementation.\nUptake assays were performed in either iron-deficient or iron-sufficient A. fumigatus wildtype cultures. In a 96-well MultiScreen Filter Plates HTS (1 μm glass fiber filter, Merck Millipore, Darmstadt, Germany), 180 μl of A. fumigatus suspended in iron-replete or iron-depleted medium was added. [^68Ga]siderophores (approx. 1 × 10^5 cpm, 80 nM) were incubated with either PBS pH 7.4 (total series) or blocking solution (10 μM [Fe]TAFC) (non-specific series) at RT for 45 min in quadriplicates. The incubation was interrupted by suction of the medium and the plate was washed twice with ice-cold TRIS-buffered saline (10 mM, pH 7.3). The filters were isolated and the remaining activities were measured in the gamma counter. The uptake was calculated as % uptake of total activity added; each assay was repeated three times. To normalize uptake variations between different fungal cultures, the uptake of each [^68Ga]siderophore was expressed as the ratio to [^68Ga]TAFC uptake from the same experiment. The mean values of three different assays were used to quantitatively compare the difference in uptake between the compounds."}, "[2]": {"system": "A. fumigatus mutant strain ΔsidA/ΔftrA", "assay": "Siderophore utilization growth assay", "format": "cell-based, Aspergillus fumigatus", "details": "37 °C; for degree of utilization / growth support by [Fe]siderophore: 0.1-100 μM [Fe]siderophore in AMM; for concentration of [Fe]siderophore at which growth was supported: 48 h incubation", "from_the_text": "For siderophore utilization growth assays, A. fumigatus mutant strain ΔsidA/ΔftrA [7], which can grow only in the presence of externally added iron-siderophores or at high iron concentrations, was used. The fungal strain was inoculated in iron-deficient culture as described above.\nTo investigate the ability or inability of A. fumigatus to take up and utilize [Fe]siderophores as iron source, a growth assay with the A. fumigatus mutant strain ΔsidA/ΔftrA was employed. In a 24-well plate, aliquots of 10^3 conidia of mutant strain were point inoculated on 1 ml of AMM containing 0.1, 1, 10, 50, or 100 μM of [Fe]siderophore and incubated at 37 °C for 48 h. For the control, fungi were grown in iron-limited AMM without adding [Fe]siderophore."}}, "data": [{"smiles": "CC(=O)NC1CCCN(O)C(=O)C=C(C)CCOC(=O)C(NC(=O)CN)CCCN(O)C(=O)C=C(C)CCOC(=O)C(NC(=O)CN)CCCN(O)C(=O)C=C(C)CCOC1=O", "note": "(stereo not drawn) (68Ga complex, metal not drawn) [MAFC(gly)2]", "values": [{"measurement": "uptake ratio to [^68Ga]TAFC", "setting": "[1]", "value": 0.03}, {"measurement": "uptake ratio to [^68Ga]TAFC", "setting": "[1]; listed as [^68Ga]MAFC(gly)2", "value": "less than 0.05"}]}, {"smiles": "CCC(=O)NC1CCCN(O)C(=O)C=C(C)CCOC(=O)C(NC(C)=O)CCCN(O)C(=O)C=C(C)CCOC(=O)C(NC(C)=O)CCCN(O)C(=O)C=C(C)CCOC1=O", "note": "(stereo not drawn) (68Ga complex, metal not drawn) [DAPFC]", "values": [{"measurement": "uptake ratio to [^68Ga]TAFC", "setting": "[1]", "value": 0.99}, {"measurement": "uptake ratio to [^68Ga]TAFC", "setting": "[1]; listed as [^68Ga]DAPFC", "value": "around 1"}]}, {"smiles": "CC(=O)NC1CCCN([O-])C(=O)C=C(C)CCOC(=O)C(NC(=O)CCC(=O)O)CCCN([O-])C(=O)C=C(C)CCOC(=O)C(NC(=O)CCC(=O)O)CCCN([O-])C(=O)C=C(C)CCOC1=O.[Fe+3]", "note": "(stereo not drawn) [[Fe]MAFC(suc)2, disuccinyl[Fe]MAFC]", "values": [{"measurement": "degree of utilization / growth support by [Fe]siderophore", "setting": "[2]; 48 h", "value": "low degree"}, {"measurement": "concentration of [Fe]siderophore at which growth was supported", "setting": "[2]", "value": 1, "unit": "µM"}]}, {"smiles": "CCC(=O)NC1CCCN([O-])C(=O)C=C(C)CCOC(=O)C(NC(C)=O)CCCN([O-])C(=O)C=C(C)CCOC(=O)C(NC(C)=O)CCCN([O-])C(=O)C=C(C)CCOC1=O.[Fe+3]", "note": "(stereo not drawn) [[Fe]DAPFC, propanoyl[Fe]DAFC]", "values": [{"measurement": "degree of utilization / growth support by [Fe]siderophore", "setting": "[2]; 48 h", "value": "Medium degree"}]}, {"smiles": "CC(=O)NC1CCCN(O)C(=O)C=C(C)CCOC(=O)C(NC(=O)CCC(=O)O)CCCN(O)C(=O)C=C(C)CCOC(=O)C(NC(=O)CCC(=O)O)CCCN(O)C(=O)C=C(C)CCOC1=O", "note": "(stereo not drawn) (68Ga complex, metal not drawn) [MAFC(suc)2]", "values": [{"measurement": "uptake ratio to [^68Ga]TAFC", "setting": "[1]", "value": 0.04}, {"measurement": "uptake ratio to [^68Ga]TAFC", "setting": "[1]; listed as [^68Ga]MAFC(suc)2", "value": "less than 0.05"}]}, {"smiles": "CC1=CC(=O)N([O-])CCCC(N)C(=O)OCCC(C)=CC(=O)N([O-])CCCC(N)C(=O)OCCC(C)=CC(=O)N([O-])CCCC(N)C(=O)OCC1.[Fe+3]", "note": "(stereo not drawn) [[Fe]FSC, [Fe]fusarinine C, reference compound]", "values": [{"measurement": "concentration of [Fe]siderophore at which growth was supported", "setting": "[2]", "value": 0.1, "unit": "µM"}]}, {"smiles": "CC(=O)NC1CCCN(O)C(=O)C=C(C)CCOC(=O)C(NC(=O)CCC(=O)O)CCCN(O)C(=O)C=C(C)CCOC(=O)C(NC(C)=O)CCCN(O)C(=O)C=C(C)CCOC1=O", "note": "(stereo not drawn) (68Ga complex, metal not drawn) [DAFC(suc)]", "values": [{"measurement": "uptake ratio to [^68Ga]TAFC", "setting": "[1]", "value": 0.33}]}, {"smiles": "CC1=CC(=O)N([O-])CCCC(NC(=O)CCC(=O)O)C(=O)OCCC(C)=CC(=O)N([O-])CCCC(NC(=O)CCC(=O)O)C(=O)OCCC(C)=CC(=O)N([O-])CCCC(NC(=O)CCC(=O)O)C(=O)OCC1.[Fe+3]", "note": "(stereo not drawn) [[Fe]FSC(suc)3, trisuccinyl[Fe]FSC]", "values": [{"measurement": "growth at 50 μM [Fe]siderophore", "setting": "[2]; 50 μM, 48 h", "value": "no growth"}, {"measurement": "growth at 100 μM [Fe]siderophore", "setting": "[2]; 100 μM, 48 h", "value": "sporulation defect"}, {"measurement": "degree of utilization / growth support by [Fe]siderophore", "setting": "[2]; 48 h", "value": "lowest level of growth"}]}, {"smiles": "CC(=O)NC1CCCN(O)C(=O)C=C(C)CCOC(=O)C(NC(=O)CN)CCCN(O)C(=O)C=C(C)CCOC(=O)C(NC(C)=O)CCCN(O)C(=O)C=C(C)CCOC1=O", "note": "(stereo not drawn) (68Ga complex, metal not drawn) [DAFC(gly)]", "values": [{"measurement": "uptake ratio to [^68Ga]TAFC", "setting": "[1]", "value": 0.89}, {"measurement": "uptake ratio to [^68Ga]TAFC", "setting": "[1]; listed as [^68Ga]DAFC(gly)", "value": "around 1"}]}, {"smiles": "CC(=O)NC1CCCN(O)C(=O)C=C(C)CCOC(=O)C(N)CCCN(O)C(=O)C=C(C)CCOC(=O)C(N)CCCN(O)C(=O)C=C(C)CCOC1=O", "note": "(stereo not drawn) (68Ga complex, metal not drawn) [MAFC]", "values": [{"measurement": "uptake ratio to [^68Ga]TAFC", "setting": "[1]", "value": 0.26}]}, {"smiles": "CC(=O)NC1CCCN(O)C(=O)C=C(C)CCOC(=O)C(NC(=O)c2ccccc2)CCCN(O)C(=O)C=C(C)CCOC(=O)C(NC(C)=O)CCCN(O)C(=O)C=C(C)CCOC1=O", "note": "(stereo not drawn) (68Ga complex, metal not drawn) [DABzFC]", "values": [{"measurement": "uptake ratio to [^68Ga]TAFC", "setting": "[1]", "value": 0.53}]}, {"smiles": "CC(=O)NC1CCCN(O)C(=O)C=C(C)CCOC(=O)C(NC(C)=O)CCCN(O)C(=O)C=C(C)CCOC(=O)C(N)CCCN(O)C(=O)C=C(C)CCOC1=O", "note": "(stereo not drawn) (68Ga complex, metal not drawn) [DAFC]", "values": [{"measurement": "uptake ratio to [^68Ga]TAFC", "setting": "[1]", "value": 0.56}]}, {"smiles": "CC1=CC(=O)N(O)CCCC(NC(=O)CN)C(=O)OCCC(C)=CC(=O)N(O)CCCC(NC(=O)CN)C(=O)OCCC(C)=CC(=O)N(O)CCCC(NC(=O)CN)C(=O)OCC1", "note": "(stereo not drawn) (68Ga complex, metal not drawn) [FSC(gly)3]", "values": [{"measurement": "uptake ratio to [^68Ga]TAFC", "setting": "[1]", "value": 0.01}, {"measurement": "uptake ratio to [^68Ga]TAFC", "setting": "[1]; listed as [^68Ga]FSC(gly)3", "value": "less than 0.05"}]}]}
